Experimental data taken from US8802894B2, “Process for the preparation of aqueous solutions of methylglycine-N,N-diacetic acid trialkali metal salts” (BASF SE, priority 2012, dated 2014).

What was measured:
[1] = solubility limit / achievable concentration in water; format: physicochemical
[2] = saturation concentration of aqueous solutions, L-enantiomer versus D,L-racemate; format: physicochemical; conditions: aqueous solution
Text: The L-enantiomer of α-alanine is available at low cost and leads, through Strecker synthesis, as a result of reaction with hydrocyanic acid and formaldehyde in aqueous solution, to L-α-alanine-N,N-diacetonitrile, and saponification thereof with a base leads to aqueous solutions which not only have a higher saturation concentration of the L-enantiomer compared to the D,L-racemate of the MGDA trialkali metal salts, but which also produce a readily crystallizing solid by means of crystallization.

| solubility limit [1] | solubility compared to the racemate [2] | Molecule |
| --- | --- | --- |
| ca. 18 % by weight |  | C[C@H](N)C(=O)O [α-alanine] |
|  | higher | methylglycine-N,N-diacetic acid trialkali metal salt [L-MGDA trialkali metal salt] |
